Assay results as given in patent publication US20170333391A1, “METHOD FOR DELAYING THE ONSET OF PULMONARY FIBROSIS OR TREATING PULMONARY FIBROSIS” (EVERFRONT BIOTECH INC., priority 2016, published 2017).

What was measured:
TGF-β protein = TGF-β protein expression in NHLF, western blotting (3-1); assay type: cell-based, human
Description: Normal Human lung fibroblasts (NHLF) were seeded into 6 cm culture dishes at a density of 2×10^5 cells/dish, comprising a control group and six experimental groups (7 dishes in total). The cells were cultured until the next day, and then the mediums were removed. Each group was respectively treated under the following conditions to conduct follow-up experiments: • (1) Control group: cells were cultured in a FGM-2 medium containing 10% serum for 36 hours; • (2) Group i: cells were cultured in a FGM-2 medium containing 1% serum for 36 hours; • (3) Group ii: cells were firstly cultured in a FGM-2 medium containing 1% serum for 12 hours, and then compound (1) was added into the medium to provide a final concentration of 15 μg/ml; thereafter, the cells were cultured for another 24 hours; • (4) Group iii: cells were firstly cultured in a FGM-2 medium containing 1% serum for 12 hours, and then compound (1) was added into the medium to provide a final concentration of 25 μg/ml; thereafter, the cells were cultured for another 24 hours; • (5) Group iv: cells were cultured in a FGM-2 medium containing 1% serum and TGF-β1 (5 ng/ml) for 36 hours; • (6) Group v: cells were firstly cultured in a FGM-2 medium containing 1% serum and TGF-β1 (5 ng/ml) for 12 hours, and then compound (1) was added into the medium to provide a final concentration of 15 μg/ml; thereafter, the cells were cultured for another 24 hours; and • (7) Group vi: cells were firstly cultured in a FGM-2 medium containing 1% serum and TGF-β1 (5 ng/ml) for 12 hours, and then compound (1) was added into the medium to provide a final concentration of 25 μg/ml; thereafter, the cells were cultured for another 24 hours.
Thereafter, the proteins in the cells of each group were extracted, and the expressions of BMP-7 protein, TGF-β protein and α-SMA protein in the NHLF cells of each group were measured with western blotting, wherein the β-actin served as the internal control. The results of the control group served as the basis for calculating the relative expression levels of the other groups.

α-SMA = α-SMA mRNA expression in NHLF, Q-PCR (3-2); assay type: cell-based, human; conditions: 24 hours
Description: Normal Human lung fibroblasts (NHLF) were seeded into 6-well plate at a density of 10^5 cells/well, comprising a control group and five experimental groups (6 wells in total). The cells were cultured until the next day, and then the mediums were removed. Each group was respectively treated under the following conditions to conduct follow-up experiments: • (1) Control group: cells were cultured in a FGM-2 medium containing 1% serum for 24 hours; • (2) Group α: cells were cultured in a FGM-2 medium containing 1% serum and compound (1) (5 μg/ml) for 24 hours; • (3) Group β: cells were cultured in a FGM-2 medium containing 1% serum and compound (1) (10 μg/ml) for 24 hours; • (4) Group γ: cells were cultured in a F-12K medium containing 1% serum and H2O2 (0.1 mM) for 24 hours; • (5) Group δ: cells were cultured in a F-12K medium containing 1% serum, H2O2 (0.1 mM) and compound (1) (5 μg/ml) for 24 hours; and • (6) Group ε: cells were cultured in a F-12K medium containing 1% serum, H2O2 (0.1 mM) and compound (1) (10 μg/ml) for 24 hours.
Thereafter, the total RNA of cells taken from each group were extracted, and then reverse transcription was conducted on the total RNA by using a QuantiTect Reverse Transcription Kit to obtain cDNA therefrom. A Q-PCR was then conducted on the cDNA to analyze the mRNA expression levels of genes such as α-SMA and TGF-β, wherein GAPDH gene served as an internal control. The results of the control group served as the basis for calculating the relative expression levels of the other groups.

For CCCC=C1OC(=O)c2ccccc21 [compound (1)], the “Relative expression level (fold) TGF-β protein” value (TGF-β protein; Group ii: 1% serum 12 h, then compound (1) 15 μg/ml 24 h, no TGF-β1, 10% serum control = 1, 1% serum group i = 0.66) was 0.63 fold, the “Relative expression level (fold) TGF-β protein” value (TGF-β protein; Group iii: 1% serum 12 h, then compound (1) 25 μg/ml 24 h, no TGF-β1, 10% serum control = 1, 1% serum group i = 0.66) was 0.52 fold and the “Relative expression level (fold) TGF-β protein” value (TGF-β protein; Group v: 1% serum + TGF-β1 5 ng/ml 12 h, then compound (1) 15 μg/ml 24 h, 10% serum control = 1, TGF-β1-only group iv = 0.80) was 0.79 fold. For the same molecule, the “Relative expression level (fold) TGF-β protein” value (TGF-β protein; Group vi: 1% serum + TGF-β1 5 ng/ml 12 h, then compound (1) 25 μg/ml 24 h, 10% serum control = 1, TGF-β1-only group iv = 0.80) was 0.59 fold, the “Relative expression level (fold) α-SMA” value (α-SMA; Group α: mRNA, FGM-2 medium 1% serum + compound (1) 5 μg/ml, control group = 1) was 0.46 fold and the “Relative expression level (fold) α-SMA” value (α-SMA; Group β: mRNA, FGM-2 medium 1% serum + compound (1) 10 μg/ml, control group = 1) was 0.64 fold. For the same molecule, the “Relative expression level (fold) α-SMA” value (α-SMA; Group δ: mRNA, F-12K medium 1% serum + H2O2 0.1 mM + compound (1) 5 μg/ml, control group = 1, H2O2-only group γ = 0.92) was 0.56 fold and the “Relative expression level (fold) α-SMA” value (α-SMA; Group ε: mRNA, F-12K medium 1% serum + H2O2 0.1 mM + compound (1) 10 μg/ml, control group = 1, H2O2-only group γ = 0.92) was 0.37 fold.
